The source of these data is patent US20150175545A1, “Preparation Method of Fluoro-Substituted Deuterated Diphenylurea” (SUZHOU ZELGEN BIOPHARMACEUTICAL CO., LTD, priority 2012, published 2015).

In data set [1] the target is c-Kit protein tyrosine kinase (Homo sapiens, UniProt P10721). The data set can be described thus: ELISA inhibition of c-Kit protein tyrosine kinase at the molecular level. In kind it is biochemical. As to conditions: for results (inhibition efficacy): c-Kit and PDGFR-β, efficacy if inhibition rate at 10^-5 mol/L greater than 50%. The procedure:
(§1) The activity of diphenylurea compounds for inhibiting c-Kit, PDGFR-β protein tyrosine kinases on molecular level was tested by Enzyme-Linked Immunosorbent Assay (ELISA).
(§2) Reacting substrate Poly(Glu,Tyr)4:1 was bought from Sigma; Monoclonal antibody against tyrosine phosphate PY99 was bought from Santa Cruz; Horseradish peroxidase labeled sheep-against-rat IgG was bought from Calbiochem; ATP, DTT, OPD were bought from Amresco; microplates were bought from Corning; Su11248 was bought from Merk.
(§3) See Roskoski, R., Jr. Sunitinib: a VEGF and PDGF receptor protein kinase and angiogenesis inhibitor. Biochem Biophys Res Commun, 356: 323-328, 2007. The details comprise:
Kinase reaction substrate Poly(Glu,Tyr)4:1 was diluted to 20 μg/ml by potassium-free PBS, and the microplates were coated. Diphenylurea samples to be tested were added in the wells of the coated microplates (the samples to be tested were made from the stock solution of 10^−2 M in DMSO, and diluted to the desired concentration with reaction buffer before use. The resulted solution was added into the wells to get the final concentration of 10^−5 mol/L in 100 μL reaction system). At the same time, the positive control compound Su11248 was added to the positive control wells.
ATP solution diluted with reaction buffer (the final concentration of ATP is 5 μM) and tyrosine kinase for testing diluted with reaction buffer were added in turn. The total volume of reaction system was 100 μL. At the same time, the negative control wells and the control wells without enzyme were set up.
The reaction system was placed in a wet box and shaked for 1 h at 37° C. by shaking shielding from light. After the reaction was completed, plates were washed three times with T-PBS. Antibody PY99 was added (100 μL/well), and plates were shaked for 30 min at 37° C. After the reaction was completed, the plates were washed with three times T-PBS. Horseradish peroxidase labeled sheep-against-rat IgG was added (100 μL/well), and the plates were shaked for 30 min at 37° C. After the reaction was completed, the plates were washed with T-PBS for three times. OPD developing liquid was added (100 μL/well), and reacted for 1-10 min at room temperature shielding from light. 50 μL of 2 M H2SO4 was added to quench the reaction. A492 value was determined using wavelength-adjustable microplates reader VERSAmax.
(§4) The inhibition ratio of samples can be calculated by the following formula: […]

Data set [2] concerns the target PDGFR-β protein tyrosine kinase (Homo sapiens, UniProt P09619). The data set can be described thus: ELISA inhibition of PDGFR-β protein tyrosine kinase at the molecular level. Format: biochemical. The conditions noted are these: 10 μM compound, ATP 5 μM, mean of duplicate experiments. The procedure: as §1, §2, §3
Kinase reaction substrate Poly(Glu,Tyr)4:1 was diluted to 20 μg/ml by potassium-free PBS, and the microplates were coated. […]
The reaction system was placed in a wet box and shaked for 1 h at 37° C. by shaking shielding from light. […] A492 value was determined using wavelength-adjustable microplates reader VERSAmax.
as §4

The nature of data set [3]: Pharmacokinetic evaluation of CM4306, CM4308 and CM4309 in rats (mixed solution, intragastric). The conditions noted are these: 4 mg/kg intragastric, mixed solution in PEG400, plasma; for MRT inf: read-out: MRT(0-∞). Format: in vivo, SD rats.
Protocol: Blood samples were collected at 0.25, 0.5, 1.0, 2.0, 3.0, 5.0, 7.0, 9.0, 24, 36, 48 and 72 h after the administration.
Data set [4] relates to human liver cancer cell SMMC-7721. The experiment in a line: Nude mice xenograft model inoculated with SMMC-7721 cells, tumor growth inhibition. In kind it is in vivo. The conditions noted are these: 30 mg/kg intragastric every day for 2 weeks; for relative tumor increment rate T/C %: effective if T/C ≦40% and p<0.05. The method, then: The establishment of tumor-bearing nude mice xenograft model: SMMC-7721 cells in logarithmic growth period were cultured. After cell number was counted, the cells were suspended in 1×PBS, and the concentration of the cell suspension was adjusted to 1.5×10^7/ml. The tumor cells were inoculated (s.c.) 3×10^6/0.2 ml/mice under the right armpit of nude mice. 45 nude mice were inoculated in total. When the tumor size reached 30-130 mm^3, 34 mice were randomly divided into different groups. […] Administration of testing drugs was started. […] Observation continued upon the withdraw till the tumor volume was larger than 2000 mm^3. The weight of animals and tumor size were tested twice a week during the experiment. […] The formula for calculating the tumor volume (TV) is: TV=a×b^2/2, wherein a and b independently and respectively represent the length and the breadth of the tumor. The formula for calculating the relative tumor volume (RTV) is: RTV=Vt/V0, wherein V0 is the tumor volume at the beginning of the administration, and Vt is […] when measured. The index for evaluating the antitumor activity is relative tumor increment rate T/C (%), and the calculation formula is: T/C (%)=(TRTV/CRTV)×100%, wherein, TRTV is the RTV for the treatment group, and CRTV is the RTV for the negative control group. Evaluation standard for efficacy: it is effective if the relative tumor increment rate T/C (%) is ≦40% and p<0.05 by statistics analysis.

Setting [5] is: male, SD, rat, plasma, po, 4 mg/kg, individual rat.
[6] abbreviates: male, SD, rat, plasma, po, 4 mg/kg, mean value of 3 rats.
Setting [7] is: male, SD, rat, plasma, po, 4 mg/kg, mean value of 3 rats, read-out: Cmax.
Where [8] appears, read: male, SD, rat, plasma, po, 4 mg/kg, mean value of 3 rats, read-out: Tmax.

Several values for one entry are separate records, joined by “and”; a condition that tells them apart may be missing. Equal entries are not always repeated. Where two headings read alike, the source gives them in different places.

c-Kit protein tyrosine kinase, sequence (P10721 26-976): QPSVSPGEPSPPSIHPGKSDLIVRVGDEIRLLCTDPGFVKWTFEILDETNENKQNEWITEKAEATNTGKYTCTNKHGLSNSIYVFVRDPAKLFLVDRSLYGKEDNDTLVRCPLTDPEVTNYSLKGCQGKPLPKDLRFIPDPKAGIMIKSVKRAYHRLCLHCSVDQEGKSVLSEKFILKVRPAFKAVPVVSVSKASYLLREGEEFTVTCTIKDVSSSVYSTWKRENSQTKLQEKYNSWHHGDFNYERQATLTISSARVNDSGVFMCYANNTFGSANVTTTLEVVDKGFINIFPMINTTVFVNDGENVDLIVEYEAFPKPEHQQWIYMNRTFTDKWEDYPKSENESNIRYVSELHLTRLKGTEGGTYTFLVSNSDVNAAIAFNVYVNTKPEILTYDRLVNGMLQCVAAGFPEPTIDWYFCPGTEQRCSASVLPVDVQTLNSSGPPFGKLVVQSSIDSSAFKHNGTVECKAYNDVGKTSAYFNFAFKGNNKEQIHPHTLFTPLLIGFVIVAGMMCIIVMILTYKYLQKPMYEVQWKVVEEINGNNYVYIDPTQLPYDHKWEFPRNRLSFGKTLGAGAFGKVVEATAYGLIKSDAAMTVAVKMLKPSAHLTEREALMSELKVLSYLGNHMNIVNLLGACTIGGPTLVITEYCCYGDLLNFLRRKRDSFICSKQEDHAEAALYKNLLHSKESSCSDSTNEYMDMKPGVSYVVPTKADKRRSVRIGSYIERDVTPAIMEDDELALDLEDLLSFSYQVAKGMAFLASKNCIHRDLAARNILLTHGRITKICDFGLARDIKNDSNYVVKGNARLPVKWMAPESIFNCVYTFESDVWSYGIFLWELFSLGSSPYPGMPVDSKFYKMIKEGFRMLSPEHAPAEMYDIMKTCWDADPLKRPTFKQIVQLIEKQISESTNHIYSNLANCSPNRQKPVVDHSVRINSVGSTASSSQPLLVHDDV
PDGFR-β protein tyrosine kinase, sequence (P09619 33-1106): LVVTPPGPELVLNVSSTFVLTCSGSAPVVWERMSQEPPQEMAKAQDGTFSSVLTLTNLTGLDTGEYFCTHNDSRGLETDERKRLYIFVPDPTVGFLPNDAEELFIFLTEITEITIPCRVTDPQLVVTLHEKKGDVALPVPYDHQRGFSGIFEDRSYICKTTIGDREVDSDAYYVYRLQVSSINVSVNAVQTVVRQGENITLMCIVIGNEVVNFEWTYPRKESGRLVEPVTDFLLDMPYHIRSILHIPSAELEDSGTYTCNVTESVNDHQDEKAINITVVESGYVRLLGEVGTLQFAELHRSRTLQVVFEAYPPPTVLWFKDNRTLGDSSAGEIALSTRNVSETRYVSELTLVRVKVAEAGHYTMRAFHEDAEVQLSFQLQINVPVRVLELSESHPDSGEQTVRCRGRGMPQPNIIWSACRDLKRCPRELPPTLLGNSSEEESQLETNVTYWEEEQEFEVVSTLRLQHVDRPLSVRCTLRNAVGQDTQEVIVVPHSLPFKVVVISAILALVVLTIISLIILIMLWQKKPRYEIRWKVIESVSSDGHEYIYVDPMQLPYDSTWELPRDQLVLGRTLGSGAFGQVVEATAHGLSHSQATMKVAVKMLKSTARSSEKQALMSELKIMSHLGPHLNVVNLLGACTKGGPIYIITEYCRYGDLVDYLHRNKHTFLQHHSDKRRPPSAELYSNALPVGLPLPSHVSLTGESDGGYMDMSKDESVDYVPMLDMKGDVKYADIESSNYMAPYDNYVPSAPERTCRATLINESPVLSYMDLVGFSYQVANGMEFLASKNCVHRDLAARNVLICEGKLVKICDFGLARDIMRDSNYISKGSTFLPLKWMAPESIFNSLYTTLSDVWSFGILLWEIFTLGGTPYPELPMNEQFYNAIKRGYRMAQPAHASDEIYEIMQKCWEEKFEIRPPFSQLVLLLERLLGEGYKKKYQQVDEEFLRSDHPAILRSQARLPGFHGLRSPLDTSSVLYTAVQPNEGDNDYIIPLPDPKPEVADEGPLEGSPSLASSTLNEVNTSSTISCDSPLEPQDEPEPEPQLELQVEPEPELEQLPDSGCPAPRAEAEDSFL

On to `CCN(CC)CCNC(=O)c1c(C)[nH]c(/C=C2\C(=O)Nc3ccc(F)cc32)c1C` [Su11248], for which the “% Inhibition ratio for inhibiting tyrosine kinase at 10 μM, c-Kit mean value” in data set [1] (10 μM compound, ATP 5 μM, mean of duplicate experiments) is on record as 90.2%. Besides, in data set [1], the “results (inhibition efficacy)” value is listed as “effective”. Also, in data set [2], the “% Inhibition ratio for inhibiting tyrosine kinase at 10 μM, PDGFR-β mean value” came to 93.9%.

Take `CNC(=O)c1cc(Oc2ccc(NC(=O)Nc3ccc(Cl)c(C(F)(F)F)c3)c(F)c2)ccn1` [CM4308, 4-(4-(3-(4-chloro-3-(trifluoromethyl)phenyl]ureido)-3-fluorophenoxy)-N-methylpicolinamide]: in data set [3] (individual rat, 4 mg/kg), the area under the curve AUC(0-t) is 11473 ng·h/mL and 9327 ng·h/mL and 18558 ng·h/mL; the “AUC(0-∞)” value was 9541 ng·h/mL and 18973 ng·h/mL; the highest concentration (Cmax) is 378 ng/mL and 279 ng/mL and 817 ng/mL; the “MRT(0-∞)” value was 24.1 h and 21.7 h. Besides, in data set [3] (individual rat, 4 mg/kg), the T1/2 is 11.7 h and 11.4 h; the Tmax was 8.0 h and 6.0 h and 1.0 h. Moreover, in data set [3] (setting [5]), the area under the curve AUC(0-inf) worked out at 11600 ng·h/mL, the half-life was 10.1 h and the MRT inf amounted to 21 h. For the same molecule, in data set [3] (setting [6]), the area under the curve AUC(0-inf) worked out at 13400 ng·h/mL, the half-life was 11.1 h and the MRT inf is 22.2 h. Besides, the Cmax in data set [3] (setting [7]) came out at 491 ng/mL. In addition, in data set [3] (setting [8]), the time of peak concentration (Tmax) was found to be 5 h. The “AUC(0-t)” value in data set [3] (mean value of 3 rats) was found to be 13119 ng·h/mL. Also, the “results (inhibition efficacy)” value in data set [1] is recorded as “effective”. Further, the “relative tumor increment rate T/C %” value in data set [4] was 51.6%.

For the molecule `[2H]C([2H])([2H])NC(=O)c1cc(Oc2ccc(NC(=O)Nc3ccc(Cl)c(C(F)(F)F)c3)c(F)c2)ccn1` [CM4309, 4-(4-(3-(4-chloro-3-(trifluoromethyl)phenyl]ureido)-3-fluorophenoxy)-N-(methyl-d3)picolinamide], in data set [3] (individual rat, 4 mg/kg), the “AUC(0-t)” value was 22220 ng·h/mL and 35592 ng·h/mL and 25601 ng·h/mL; the “AUC(0-∞)” value was 41702 ng·h/mL and 28899 ng·h/mL; the peak concentration (Cmax) was 933 ng/mL and 530 ng/mL; the “MRT(0-∞)” value was 39.1 h and 36.7 h. In addition, in data set [3] (individual rat, 4 mg/kg), the T1/2 was 23.4 h and 20.9 h; the Tmax is 24.0 h and 1.0 h and 8.0 h. Further, in data set [3] (setting [5]), the AUC(0-inf) is 27400 ng·h/mL, the half-life was 26.7 h and the MRT inf turned out to be 45.9 h. Further, the maximum concentration (Cmax) in data set [3] (male, SD, rat, plasma, po, 4 mg/kg, individual rat, read-out: Cmax) turned out to be 470 ng/mL. Besides, in data set [3] (setting [6]), the AUC(0-inf) was 32700 ng·h/mL, the half-life was 23.7 h and the MRT inf is 40.6 h. Besides, the peak concentration (Cmax) in data set [3] (setting [7]) stood at 644 ng/mL. The time to peak (Tmax) in data set [3] (setting [8]) came to 11 h. Also, in data set [3] (mean value of 3 rats), the “AUC(0-t)” value turned out to be 27804 ng·h/mL. In data set [1], the “results (inhibition efficacy)” value is on record as “effective”. In addition, in data set [4], the “relative tumor increment rate T/C %” value was 27.0% and < 40%. Besides, the “effect on tumor growth (tumor volume vs control group)” value in data set [4] (p<0.01 vs control group) is “significant effect in inhibiting tumor growth”.
